This note sets out measurements from publication PMC4153739 (Biochemistry, 2012).

Non-standard residues stand in square brackets, D forms with d. Residues, ends and D or L forms follow the SMILES beside them. Gla = N[C@@H](CC(C(=O)O)C(=O)O)C(=O)O

This assay deals with four NR2 NMDA receptor subtypes (NR2A, NR2B, NR2C, NR2D with NR1-2b). In kind it is cell-based, rat.

In the case of `CC(C)C[C@H](NC(=O)[C@H](CC(C(=O)O)C(=O)O)NC(=O)[C@H](CCCNC(=N)N)NC(=O)[C@H](C)NC(=O)[C@H](Cc1ccccc1)NC(=O)[C@H](CC(C(=O)O)C(=O)O)NC(=O)[C@H](CCC(N)=O)NC(=O)[C@H](CC(N)=O)NC(=O)[C@H](CC(C(=O)O)C(=O)O)NC(=O)[C@H](C)NC(=O)[C@H](CC(C)C)NC(=O)[C@H](CC(C(=O)O)C(=O)O)NC(=O)[C@H](CC(C(=O)O)C(=O)O)NC(=O)[C@H](CCC(=O)O)NC(=O)CN)C(=O)N[C@@H](C)C(=O)N[C@@H](CC(N)=O)C(N)=O` [ConRl-B[desKAO;N8Q9]] (H-GE[Gla][Gla]LA[Gla]NQ[Gla]FAR[Gla]LAN-NH2; N-terminus assumed), the “activity on the four NR2 NMDA receptor subtypes, in words” value is “little or no activity”.
